From USRE37314E, “Pyrimidine derivatives” (Shionogi Seiyaku Kabushiki Kaisha, priority 1991, dated 2001)

Molecular target: T1, HMG-CoA reductase (Rattus norvegicus, UniProt P51639)
T1 construct: The rat liver microsome sample (100 μl), which was preserved at -80° C; from tissue; host or cells: liver microsomes of Sprague-Dawley rats fed 2% cholestyramine
T1 sequence (P51639 1-887): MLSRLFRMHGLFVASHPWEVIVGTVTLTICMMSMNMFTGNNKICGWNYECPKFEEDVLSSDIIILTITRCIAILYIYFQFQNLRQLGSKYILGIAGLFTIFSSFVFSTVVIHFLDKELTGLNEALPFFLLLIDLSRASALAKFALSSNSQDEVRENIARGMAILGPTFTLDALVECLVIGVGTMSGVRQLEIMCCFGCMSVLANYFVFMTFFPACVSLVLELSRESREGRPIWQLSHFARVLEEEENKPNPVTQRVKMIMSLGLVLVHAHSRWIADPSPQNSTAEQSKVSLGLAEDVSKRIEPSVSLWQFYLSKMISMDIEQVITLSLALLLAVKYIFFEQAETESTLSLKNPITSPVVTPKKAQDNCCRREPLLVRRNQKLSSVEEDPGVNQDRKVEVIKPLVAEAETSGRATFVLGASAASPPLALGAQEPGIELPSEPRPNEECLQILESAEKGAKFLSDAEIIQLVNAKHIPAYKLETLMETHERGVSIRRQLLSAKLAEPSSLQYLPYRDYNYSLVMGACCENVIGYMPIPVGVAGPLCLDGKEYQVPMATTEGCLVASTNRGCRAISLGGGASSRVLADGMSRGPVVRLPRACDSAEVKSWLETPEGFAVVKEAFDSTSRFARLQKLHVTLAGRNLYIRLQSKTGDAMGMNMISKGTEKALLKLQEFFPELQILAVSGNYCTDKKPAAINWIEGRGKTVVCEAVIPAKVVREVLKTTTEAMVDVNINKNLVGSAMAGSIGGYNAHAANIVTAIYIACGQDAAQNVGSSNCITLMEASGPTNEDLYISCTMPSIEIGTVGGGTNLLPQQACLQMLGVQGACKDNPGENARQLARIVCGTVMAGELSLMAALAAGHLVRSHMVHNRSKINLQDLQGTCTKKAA
Assay: HMG-CoA reductase inhibitory effect (rat liver microsome, [14C]HMG-CoA, TLC/scintillation)
Assay type: biochemical
Conditions: comparative activity, with activity of Mevinolin (sodium salt) as reference drug taken as 100, sodium salt of test compound, 37° C., 30 minutes
Procedure: The HMG-CoA reductase inhibitory effect
(1) Preparation of rat liver microsome
Sprague-Dawley rats, which were in free access to ordinary dietes containing 2% cholestyramine and water for 2 weeks, were used for the preparation of rat liver microsome. The thus obtained microsome was the purified according to the manner by Juroda et al., Biochem. Biophys. Act, 486, 70 (1977). The microsomal fraction obtained by centrifugation at 105,000×g was washed once with a buffered solution containing 15 mM nicotinamide and 2 mM magnesium chloride (in a 100 mM potassium phosphate buffer, pH 7.4). It was homogenized with a buffer containing nicotinamide and magnesium chloride at the same weight as the liver employed. The thus obtained homogenate was cooled down and kept at -80° C.
(2) Measurement of the HMG-CoA reductase inhibitory activities
The rat liver microsome sample (100 μl), which was preserved at -80° C., was fused at 0° C. and diluted with 0.7 ml of a cold potassium phosphate buffer (100 mM, pH7.4). This was mixed with 0.8 ml of 50 mM EDTA (buffered with the aforementioned potassium phosphate buffer) and 0.4 ml of 100 mM dithiothreitol solution (buffered with the aforementioned potassium phosphate buffer), and the mixture was kept at 0° C. The microsome solution (1.675 ml) was mixed with 670 μl of 25 mM NADPH (buffered with the aformentioned potassium phosphate buffer), and the solution was added to the solution of 0.5 mM [3^-14 ](HMG-CoA (3mCi/mmol). A solution (5 μl) of sodium salt of the test compound dissolved in potassium phosphate buffer is added to 45 μl of the mixture. The resulting mixture was incubated at 37° C. for 30 minutes and cooled. After termination of the reaction by addition of 10 μl of 2N·HCl, the mixture was incubated again at 37° C. for 15 minutes and then 30 μl of this mixture was applied to thin-layer chromatography of silica gel of 0.5 mm in thickness (Merck AG, Art 5744). The chromatograms were developed in toluene/acetone (1/1) and the spot, whose Rf value was between 0.45 to 0.60, were scraped. The obtained products were put into a vial containing 10 ml of scintillator to measure specific radio-activity with scintillation counter.

Q: `CC(C)c1nc(N(C)S(C)(=O)=O)nc(-c2ccc(F)cc2)c1C=CC(O)CC(O)CC(=O)O` (single isomer, unassigned) [Compound 1a-1] was tested. Which “HMG-CoA reductase inhibitory activities” value did it give?
A: Its value is 442.

Q: Which “HMG-CoA reductase inhibitory activities” value does the source give for `CSc1nc(-c2ccc(F)cc2)c(C=CC(O)CC(O)CC(=O)O)c(C(C)C)n1` (centres unmarked) [Compound 1a-3] here?
A: Its value is 385.

Q: Which “HMG-CoA reductase inhibitory activities” value does the source give for `CC(C)c1nc(N(C)NS(C)(=O)=O)nc(-c2ccc(F)cc2)c1C=CC(O)CC(O)CC(=O)O` (centres unmarked) [Compound 1a-7] here?
A: The value was 260.

Q: How did the “HMG-CoA reductase inhibitory activities” value turn out when `CC[C@H](C)C(=O)O[C@H]1C[C@@H](C)C=C2C=C[C@H](C)[C@H](CC[C@@H](O)C[C@@H](O)CC(=O)O)[C@H]21` [Mevinolin Na, Mevinolin, reference compound] was run?
A: Its value is 100.

Q: For `COc1nc(-c2ccc(F)cc2)c(C=CC(O)CC(O)CC(=O)O)c(C(C)C)n1` (centres unmarked) [Compound 1a-5], which “HMG-CoA reductase inhibitory activities” value is on record?
A: The value was 279.
